# Several values for one entry are separate records, joined by “and”; a condition that tells them apart may be missing. Equal values may be shown once.
# How the values were obtained:
# PKL = PKL (Homo sapiens, UniProt P30613); assay: Isoform selectivity of pyruvate kinases; assay type: biochemical
# [1] = tested on: H1299 Human Non-Small Cell Lung Carcinoma; assay: H1299 human non-small cell lung carcinoma nude mouse xenograft model, tumor growth delay; assay type: in vivo, mice
# Description: (§1) The animals were fed ad libitum water (reverse osmosis, 1 ppm Cl) and NIH 31 Modified and Irradiated Lab Diet® consisting of 18.0% crude protein, 5.0% crude fat, and 5.0% crude fiber. The mice were housed on irradiated Enrich-o′ Cobs™ Laboratory Animal Bedding in static microisolators on a 12-hour light cycle at 20-22° C. (68-72° F.) and 40-60% humidity.
# H1299 (NCI-H1299) NSCLC cells were obtained from the American Type Culture Collection, which reports the cell line to have originated from a lymph node metastasis and to lack p53 expression. The cell line was maintained as exponentially growing cultures in RPMI-1640 medium supplemented with 10% fetal bovine serum, 2 mM glutamine, 100 units/mL penicillin G sodium, 100 μg/mL streptomycin sulfate, 25 μg/mL gentamicin, 10 mM HEPES, and 0.075% sodium bicarbonate. The tumor cells were cultured in tissue culture flasks in a humidified incubator at 37° C., in an atmosphere of 5% CO2 and 95% air.
# H1299 tumor cells were harvested during log phase growth and suspended in cold PBS. Each nude mouse was inoculated subcutaneously in the right flank with 0.2 mL of the cell suspension (1×10^7 cells). The tumors were periodically calipered in two dimensions to monitor size as the mean volume approached the desired 90-130 mm^3 range. Tumor size was calculated by the following formula:
# where w=width and l=length, in mm, of the tumor. Tumor weight may be estimated with the assumption that 1 mg is equivalent to 1 mm^3 of tumor volume.
# Compound 13A (MW 467.51, code-named XT26) was provided as a powder stored at −20° C., and protected from light during storage and handling. Dosing suspensions, in 0.5% carboxymethyl cellulose and 1% Tween® 80 in deionized water (Vehicle), were prepared fresh for each dose, and kept at 4° C. post formulation. Gemcitabine (Gemzar®, Lilly, 38 mg/mL, Lot # A866884A) was stored at room temperature. A fresh 12 mg/mL gemcitabine dosing solution was prepared on each treatment day by diluting an aliquot of the stock solution with saline.
# (§2) Dosing began on D1 in four groups of mice (n=12/group in Groups 1, 3, and 4; n=6 in Group 2). XT26 and its vehicle were administered intraperitoneally (i.p.) twice daily for 28 days (b.i.d.×28), starting with the p.m. dose on D1 and ending with the a.m. dose on D29. Gemcitabine was administered i.p. once daily at three-day intervals for four doses (q3d×4). In all groups, the dosing volume of 10 ml/kg (0.2 ml/20 g mouse) was scaled to the weight of each individual animal, as measured twice weekly.
# Group 1 mice received the XT26 vehicle b.i.d.×28, and served as the controls for the study. Group 2 received gemcitabine at 120 mg/kg. Group 3 was to receive XT26 at 100 mg/kg b.i.d.×28; on D21, four mice (Animals 1, 3, 4, and 5) erroneously received 200 mg/kg XT26 for their a.m. dose. […] Group 4 dosing at 200 mg/kg resumed on D17 on a qd (once daily)×13 dosing schedule. Because of a scheduling error, the D19 dose for Group 4 mice was omitted; qd dosing occurred on Days 17, 18, and 20-28.
# Tumors were calipered twice weekly for the duration of the study, and each animal was euthanized when its neoplasm reached the predetermined endpoint volume (1200 mm^3) or at the end of the study, whichever came first. Animals that exited the study for tumor growth were documented as euthanized for tumor progression (TP), with the date of euthanasia. The time to endpoint (TTE) for each mouse was calculated by the following equation: […]
# where TTE is expressed in days, endpoint volume is expressed in mm^3, b is the intercept, and m is the slope of the line obtained by linear regression of a log-transformed tumor growth data set.
# [2] = H1299 nude mouse xenograft study, toxicity (body weight, deaths, organ weights); assay type: in vivo, mice; conditions: mouse, in vivo, ip; for Deaths NTR: female, nude (nu/nu)
# Description: as §1, §2
# Group 1 mice received the XT26 vehicle b.i.d.×28, and served as the controls for the study. Group 2 received gemcitabine at 120 mg/kg. Group 3 was to receive XT26 at 100 mg/kg b.i.d.×28; on D21, four mice (Animals 1, 3, 4, and 5) erroneously received 200 mg/kg XT26 for their a.m. dose. Group 4 was to receive XT26 at 200 mg/kg b.i.d.×28, but dosing stopped on D9 (b.i.d.×8) because of toxicity. Group 4 dosing at 200 mg/kg resumed on D17 on a qd (once daily)×13 dosing schedule. Because of a scheduling error, the D19 dose for Group 4 mice was omitted; qd dosing occurred on Days 17, 18, and 20-28.
# Animals were weighed daily on D1-5, then twice weekly until the completion of the study. The mice were observed frequently for overt signs of any adverse, treatment-related side effects.
# On D10, both kidneys and the liver were harvested from each euthanized Group 4 animal. Each organ was weighed separately, fixed overnight in 10% neutral buffered formalin, and transferred to 70% ethanol.
# [3] = Group 1 vs 3: XT26 ip bid × 28, 100 mg/kg
# [4] = XT26 200 mg/kg ip bid × 8, then qd
# [5] = XT26 200 mg/kg ip bid × 8, then qd on Days 17, 18, 20-28
# Chain of PKL (P30613 1-543 isoform P30613-2): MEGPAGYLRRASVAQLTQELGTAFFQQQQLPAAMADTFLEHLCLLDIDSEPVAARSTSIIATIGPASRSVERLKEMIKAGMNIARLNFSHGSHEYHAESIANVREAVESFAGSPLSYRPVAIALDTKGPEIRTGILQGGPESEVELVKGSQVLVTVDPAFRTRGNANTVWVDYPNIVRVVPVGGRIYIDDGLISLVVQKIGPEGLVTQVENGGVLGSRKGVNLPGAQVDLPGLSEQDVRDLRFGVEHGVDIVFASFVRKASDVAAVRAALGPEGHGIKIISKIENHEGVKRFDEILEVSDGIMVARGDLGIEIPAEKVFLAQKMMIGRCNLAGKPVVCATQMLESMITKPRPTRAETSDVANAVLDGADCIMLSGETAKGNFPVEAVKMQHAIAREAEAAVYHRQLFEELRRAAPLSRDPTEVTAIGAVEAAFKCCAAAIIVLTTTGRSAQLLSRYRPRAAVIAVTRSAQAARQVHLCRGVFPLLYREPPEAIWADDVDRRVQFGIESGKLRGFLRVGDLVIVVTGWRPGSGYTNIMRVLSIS
structure (smiles),measurement,setting,value
"COc1ccc([C@@H]2CC(c3ccc(NS(=O)(=O)c4ccc(F)cc4)cc3)=NN2C(C)=O)cc1 [Compound 13A, (S)—N-(4-(1-acetyl-5-(4-methoxyphenyl)-4,5-dihydro-1H-pyrazol-3-yl)phenyl)-4-fluorobenzenesulfonamide]",AC50,PKL,> 11 µM
same,Are the survival curves sig different?,[1]; [3],Yes
same,Hazard Ratio,[1]; [3],2.315
same,Median survival Ratio,[1]; Group 1 vs 3: vehicle / XT26 100 mg/kg,0.8022
same,% TGD,[1]; XT26 100 mg/kg ip bid × 28,24%
same,Regressions CR,[1]; XT26 100 mg/kg ip bid × 28,0
same,Regressions PR,[1]; XT26 100 mg/kg ip bid × 28,0
same,Regressions TFS,[1]; XT26 100 mg/kg ip bid × 28,0
same,Median TTE,"[1]; XT26 100 mg/kg ip bid × 28, endpoint 1200 mm^3, 28-day study",23.2 days
same,MTV (n) Day 28,"[1]; XT26 100 mg/kg ip bid × 28, median tumor volume of animals not at endpoint (n in brackets), 100 mg/kg",1080 mm^3 and 1080 (3) mm^3
same,T − C,"[1]; XT26 100 mg/kg ip bid × 28, vs Group 1 vehicle",4.5 days
same,Regressions CR,[1]; [4],0
same,Regressions PR,[1]; [4],0
same,Regressions TFS,[1]; [4],0
same,% TGD,[1]; [5],13%
same,T − C,[1]; [5],2.5 days
same,Median TTE,"[1]; XT26 200 mg/kg ip bid × 8, then qd on Days 17, 18, 20-28, n = 9",21.2 days
same,MTV (n) Day 28,"[1]; XT26 200 mg/kg ip bid × 8, then qd, animals not at endpoint (n in brackets), 200 mg/kg",527 mm^3 and 527 (1) mm^3
same,Median survival,"[1]; XT26 ip bid × 28, 100 mg/kg (Column B = treated group)",23.25
same,survival advantage relative to the vehicle treatment,"[1]; discontinuous 200 mg/kg XT26 therapy, five mice remaining after D10",little or no survival advantages
same,Deaths NTR,"[2]; 100 mg/kg, 28 days",0
same,Deaths NTR,[2]; 200 mg/kg,0
same,Mean BW Nadir,[2]; 200 mg/kg,−13.6%
